{
  "source": "patent US11104735B2",
  "about": "“Inhibition of cytokine-induced SH2 protein in NK cells” (The Walter and Eliza Hall Institute of Medical Research, priority 2015, dated 2021)",
  "key": {"[1]": {"tested_on": "advanced malignant melanoma", "settings": "patients; cited from earlier work"}, "[2]": {"molecular_target": "T1, CIS (Homo sapiens, UniProt Q9NSE2, DEL174-202)", "T1 construct": "fragment: residues 66-258 with a deletion of; GST (N); made in house; host or cells: E. coli BL21(DE3)", "test": "Kinase inhibition assay with competitor of CIS-SH2 binding", "assay_type": "biochemical", "settings": "for Effect on CIS-mediated inhibition of JAK1 JH1: CIS-SH2-BC, excess JAK1-Y1034 phosphopeptide as competitor", "method": "(a) Cultured NK cells from wild-type and Cish^−/− mice were lysed, mRNA purified and analysed by RNAseq. Mean RPKM values for duplicate samples (left panel). JAK1 mRNA levels were analysed by Q-PCR (right panel). Mean±S.D., n=3. (b) 4-12% Coomassie-stained SDS-PAGE gel showing purified hCIS-SH2-BC complex, elongin B and elongin C. (c) Isothermal calorimetry (ITC) was used to measure the affinity of hCIS-SH2-BC binding to phosphopeptides corresponding to tyrosines within the JAK1/3 kinase domain activation loops and IL-2Rβ and γ cytoplasmic domains. […] were titrated into a 30 μM solution of the GST-CIS-SH2-BC ternary complex. ITC titration curves and tabular view of some results (inset) showing mean±S.D. from two independent experiments. N.D.=Not detectable, p=phosphorylated. The titration curves all fitted well to a single-site model. (d) Cultured wild-type NK cells were washed and starved of IL-15 for 4 h, with and without addition of the proteasomal inhibitor, MG132. Cells were then stimulated with 50 ng ml^−1 IL-15 for the indicated times, prior to cell lysis and Western blotting with antibodies to the indicated proteins. (e) Kinase inhibition assays were performed with the kinase domain (JH1) of JAK1 in the presence of CIS-SH2-BC with and without excess JAK1-Y1034 phosphopeptide as a competitor. […] Data were normalised to no-CIS controls.\n(c) Alternatively, 50 μM JAK1-Y1034 or JAK3-Y980,Y981 phosphopeptides were used as competitor. Data were normalised to no-CIS controls. All CIS constructs contained the SOCS box and were expressed and purified as a trimeric complex consisting of CIS, elongin B and elongin C.\nKinase inhibition assays were performed essentially as described (Babon et al., 2012). Briefly, 130 μM STAT5b peptide (SEQ ID NO:18 […]) was incubated with 5 nM JAK1 at 25° C. for 30-60 min in 20 mM Tris pH 8.0, 100 mM NaCl, 5 mM 2-mercaptoethanol, 0.2 mg ml^−1 bovine serum albumin, 2 mM MgCl2, 100 μM ATP and 1 mCi γ-[32P]ATP. Recombinant CIS-SH2-BC was present at concentrations ranging from 0-30 μM. After incubation, the reaction was spotted onto P81 phosphocellulose paper and quenched in 5% H3PO4. The paper was washed (4×200 ml, 15 min) with 5% H3PO4 and exposed to a phosphorimager plate (Fuji). Quantitation was performed using Fuji software and IC50 curves calculated using Graphpad Prism."}, "[3]": {"tested_on": "LWT1 melanoma cells", "test": "LWT1 experimental lung metastasis", "assay_type": "in vivo, mouse", "settings": "Cish−/− mice, 7.5×10^5 cells i.v., day 14", "method": "Mice were monitored for tumor development and were euthanized at the point of abdominal swelling and discomfort. Improved survival between groups was assessed by the Log-rank Mantel-Cox test. (D) Groups of 5-15 B6.WT (Cish^+/+) or B6.Cish^-/- mice were injected i.v. with 5×10^5 RM-1 prostate carcinoma cells and treated with either cIg, anti-CD96, anti-PD-1, anti-CTLA-4 or anti-PD1/anti-CTLA-4 combination (250 μg i.p. each on days 0 and 3). (E) Groups of 8-10 B6.WT (Cish^+1 or B6.Cish^-/- mice were injected i.v. with 7.5×10^5 B16F10 melanoma cells and treated with either 250 μg cIg or anti-CD96 mAb (i.p. on days 0 and 3). (F) Groups of 5-6 B6.WT (Cish^+1 or B6.Cish^-/- mice were injected i.v. with 7.5×10^5 LWT1 melanoma cells and treated with either vehicle or PLX4720 (10 mg/kg i.p., daily from day 0 to 6). Lungs were harvested on (A, D, F) day 14 or (B, E) day 13 and macrometastases counted. Individual mice are shown by each symbol and the results are plotted as mean±SEM. Statistically significant differences as indicated were determined by one-way ANOVA with Tukey post-test (for multiple comparisons) (*: […]; **: p<0.01; ***: p<0.001; ****: p<0.0001). […] Lungs were harvested on day 14 and macrometastases counted. […] Lungs were harvested on day 14 and either fixed in Bouin's solution and B16F10 metastases counted^44 or analysed for NK cell expansion by flow cytometry. […]"}, "[4]": {"tested_on": "primary human NK cells", "test": "Immunoblot of IL-15 treated primary human NK cells", "assay_type": "cell-based", "settings": "2 h with IL-15, 10 μM", "method": "Patient-derived human NK cells (a) or NK lymphoma cell lines (b) SNK-10, (c) NKL and NK6, (d) NK-92 were washed free of cytokine and rested for 4 h (a) or 16 h (b-d) prior to treatment with IL-15 for the indicated times. In some instances, cells were incubated with the proteasomal inhibitor MG132 (10 μM). Cells were lysed and analysed by immunoblotting with antibodies to the indicated phosphorylated (p) and total proteins."}, "[5]": {"tested_on": "wild-type NK cells", "test": "JAK1 phosphorylation in IL-15 stimulated wild-type NK cells", "assay_type": "cell-based, mouse", "settings": "IL-15 50 ng/ml", "method": "(a) Cultured NK cells from wild-type and Cish^−/− mice were lysed, mRNA purified and analysed by RNAseq. Mean RPKM values for duplicate samples (left panel). JAK1 mRNA levels were analysed by Q-PCR (right panel). Mean±S.D., n=3. (b) 4-12% Coomassie-stained SDS-PAGE gel showing purified hCIS-SH2-BC complex, elongin B and elongin C. (c) Isothermal calorimetry (ITC) was used to measure the affinity of hCIS-SH2-BC binding to phosphopeptides corresponding to tyrosines within the JAK1/3 kinase domain activation loops and IL-2Rβ and γ cytoplasmic domains. […] were titrated into a 30 μM solution of the GST-CIS-SH2-BC ternary complex. ITC titration curves and tabular view of some results (inset) showing mean±S.D. from two independent experiments. N.D.=Not detectable, p=phosphorylated. The titration curves all fitted well to a single-site model. (d) Cultured wild-type NK cells were washed and starved of IL-15 for 4 h, with and without addition of the proteasomal inhibitor, MG132. Cells were then stimulated with 50 ng ml^−1 IL-15 for the indicated times, prior to cell lysis and Western blotting with antibodies to the indicated proteins. […]\nLysates were clarified by centrifugation at 16,060×g for 15 min at 4° C. Protein concentrations were determined by the BCA method (Pierce, Rockford). […]"}, "[6]": {"tested_on": "JAK1 phosphorylation in 293T cells", "test": "JAK1 phosphorylation in 293T cells co-expressing JAK1 and CIS", "assay_type": "cell-based, human", "settings": "pre-incubation of 293T cells, 10 μM for 4 h", "method": "(a) Isothermal calorimetry (ITC) was used to measure the affinity of hCIS-SH2-BC binding to phosphopeptides corresponding to tyrosines within the JAK1/3 kinase domain activation loops and IL-2Rβ cytoplasmic domains. Tabular view of the results, showing mean±S.D. from two independent experiments. N.D.=Not detectable, p=phosphorylated. […] In some instances, cells were treated with the proteasome inhibitor, MG132. […] Protein expression levels are shown by anti-FLAG blots of whole cell lysates (lower panels). […] Protein levels are shown in the lower panels by anti-FLAG blot of cell lysates. (e) Using a cell-free system, FLAG-JAK1 was incubated with (+) and without (−) the CIS-E3 ligase complex (CIS-SH2-BC with Cullin5 and Rbx2), together with ubiquitin, E1 and E2 enzymes at 37° C. for the times indicated. JAK1 ubiquitination was visualised by Western blotting with antibodies to […]. […] Data were normalised to no-CIS controls. […] See also FIG. 9.\nLysates were clarified by centrifugation at 16,060×g for 15 min at 4° C. Protein concentrations were determined by the BCA method (Pierce, Rockford). […] In some instances, cells were pre-treated with 10 μM MG132 for 4 h to block proteasomal degradation. 48 h post-transfection cells were lysed in KALB buffer (Nicholson et al., 1995). FLAG proteins were immunoprecipitated using M2-beads (Sigma) and proteins eluted in SDS sample buffer. […]"}, "[7]": {"molecular_target": "T2, JAK3 phosphopeptide (JAK3-Y980,Y981) (Homo sapiens, UniProt P52333)", "T2 construct": "purchased Genscript", "test": "ITC, CIS constructs binding to JAK3 phosphopeptide", "settings": "CIS constructs with elongins B and C", "method": "300 μM phosphopeptides were titrated into a 30 μM solution of the GST-CIS-SH2-BC ternary complex. ITC titration curves are shown. The titration curves all fitted well to a single-site model.\nIsothermal calorimetric titrations were performed with a Microcal ITC200 (GE Healthcare). Phosphopeptides were obtained from Genscript. An optimised GST-CIS protein construct was prepared in which the internal PEST region ([…]) was deleted. The resulting ternary GST-CIS-SH2-SB complexes were dialysed against buffer (20 mM Tris pH 8.0, 100 mM NaCl, 2 mM 2-mercaptoethanol). Experiments were performed at 298 K unless stated otherwise. Typically, 12×3.15 μl injections of 300 μM phosphopeptides were titrated into a 30 μM solution of the GST-CIS-SH2-SB ternary complex. The heat of dilution of GST-CIS-SH2-BC was subtracted from the raw data of the binding experiment. Data were analysed using the evaluation software, Microcal Origin version 5.0. The binding curve fitted a single-site binding mode and all KD values were determined from duplicate experiments."}},
  "note": "Residues, ends and D or L forms follow the SMILES beside them. *: point of attachment. Cbz = O=C(OCc1ccccc1)*",
  "data": [
    {"molecule": "Ipilimumab: antibody-based therapy that targets CTLA-4", "values": [
      {"measurement": "Tumour responses", "setting": "[1]", "value": "10-12%"}
    ]},
    {"molecule": "O=P(O)(O)Oc1ccccc1", "note": "[phenyl phosphate, reference compound]", "values": [
      {"measurement": "Effect on CIS inhibition of JAK1 kinase activity", "setting": "[2]; excess phenyl phosphate as competitor, all CIS constructs", "value": "abrogated the ability of all CIS constructs to inhibit JAK1 kinase activity"}
    ]},
    {"molecule": "CCCS(=O)(=O)Nc1ccc(F)c(C(=O)c2c[nH]c3ncc(Cl)cc23)c1F", "note": "[PLX4720]", "values": [
      {"measurement": "LWT1 lung metastasis", "setting": "[3]", "value": "further reduced"}
    ]},
    {"molecule": "CC(C)C[C@@H](C=O)NC(=O)[C@H](CC(C)C)NC(=O)[C@H](CC(C)C)NC(=O)OCc1ccccc1", "note": "[MG132] (Cbz-Leu-Leu-Leu-aldehyde)", "values": [
      {"measurement": "JAK1 phosphorylation", "setting": "[4]", "value": "remained reduced"},
      {"measurement": "Total JAK1 and CIS levels", "setting": "[4]", "value": "increase total JAK1 and CIS levels"},
      {"measurement": "Phosphorylation of endogenous JAK1", "setting": "[5]", "value": "increase in phosphorylation of endogenous JAK1"},
      {"measurement": "Effect on CIS-mediated regulation of JAK1 phosphorylation", "setting": "[6]", "value": "reduced CIS-mediated regulation of JAK1 phosphorylation"}
    ]},
    {"molecule": "JAK1-Y1034: phosphopeptide corresponding to a singly-phosphorylated JAK1 activation loop (Tyr1034)", "values": [
      {"measurement": "Effect on CIS inhibition of JAK1 kinase activity", "setting": "[2]; 50 μM free phosphopeptide as competitor", "value": "dramatically reduced the ability of CIS to inhibit JAK1 kinase activity"},
      {"measurement": "Effect on CIS-mediated inhibition of JAK1 JH1", "setting": "[2]; listed as JAK1 activation loop peptide", "value": "only partial reduction of inhibition"},
      {"measurement": "Effect on CIS-mediated inhibition of JAK1 JH1", "setting": "[2]; listed as pY1034 peptide", "value": "partially reduced CIS-mediated inhibition"}
    ]},
    {"molecule": "full-length CIS: human full-length CIS protein expressed with elongins B and C as trimeric complex", "values": [
      {"measurement": "Binding affinity (ITC) to JAK3 phosphopeptide", "setting": "[7]", "value": "comparable affinity"}
    ]}
  ]
}
